Experimental data taken from PMC11508649 (International Journal of Molecular Sciences, 2024).
Where a name gives a salt, the structure may show the parent alone.

| Structure (SMILES) | melting point [°C] |
| --- | --- |
| O=C1CC(c2c[nH]c3ccccc23)C(=O)N1CCCN1CC=C(c2c[nH]c3ncccc23)CC1 (stereo not drawn) (as salt: hydrochloride) [Compound 5, 1-(3-(4-(1H-Pyrrolo[2,3-b]pyridin-3-yl)-3,6-dihydropyridin-1(2H)-yl)propyl)-3-(1H-indol-3-yl)pyrrolidine-2,5-dione] | 97 to 102 |
| O=C1CC(c2c[nH]c3ccccc23)C(=O)N1CCN1CC=C(c2c[nH]c3ncccc23)CC1 (stereo not drawn) (as salt: hydrochloride) [Compound 6, 1-(2-(4-(1H-Pyrrolo[2,3-b]pyridin-3-yl)-3,6-dihydropyridin-1(2H)-yl)ethyl)-3-(1H-indol-3-yl)pyrrolidine-2,5-dione] | 233 to 235 |
| O=C1CC(c2c[nH]c3ccc(F)cc23)C(=O)N1CCN1CC=C(c2c[nH]c3ncccc23)CC1 (stereo not drawn) (as salt: hydrochloride) [Compound 12, 1-(2-(4-(1H-Pyrrolo[2,3-b]pyridin-3-yl)-3,6-dihydropyridin-1(2H)-yl)ethyl)-3-(5-fluoro-1H-indol-3-yl)pyrrolidine-2,5-dione] | 250 to 252 |
| COc1ccc2[nH]cc(C3CC(=O)N(CCN4CC=C(c5c[nH]c6ncccc56)CC4)C3=O)c2c1 (stereo not drawn) (as salt: hydrochloride) [Compound 9, 1-(2-(4-(1H-Pyrrolo[2,3-b]pyridin-3-yl)-3,6-dihydropyridin-1(2H)-yl)ethyl)-3-(5-methoxy-1H-indol-3-yl)pyrrolidine-2,5-dione] | 129 to 132 |
| COc1ccc2[nH]cc(C3CC(=O)N(CCCCN4CC=C(c5c[nH]c6ncccc56)CC4)C3=O)c2c1 (stereo not drawn) (as salt: hydrochloride) [Compound 7, 1-(4-(4-(1H-Pyrrolo[2,3-b]pyridin-3-yl)-3,6-dihydropyridin-1(2H)-yl)butyl)-3-(5-methoxy-1H-indol-3-yl)pyrrolidine-2,5-dione] | 140 to 144 |
| COc1ccc2[nH]cc(C3CC(=O)N(CCCN4CC=C(c5c[nH]c6ncccc56)CC4)C3=O)c2c1 (stereo not drawn) (as salt: hydrochloride) [Compound 8, 1-(3-(4-(1H-Pyrrolo[2,3-b]pyridin-3-yl)-3,6-dihydropyridin-1(2H)-yl)propyl)-3-(5-methoxy-1H-indol-3-yl)pyrrolidine-2,5-dione] | 111 to 115 |
| O=C1CC(c2c[nH]c3ccc(F)cc23)C(=O)N1CCCN1CC=C(c2c[nH]c3ncccc23)CC1 (stereo not drawn) (as salt: hydrochloride) [Compound 11, 1-(3-(4-(1H-Pyrrolo[2,3-b]pyridin-3-yl)-3,6-dihydropyridin-1(2H)-yl)propyl)-3-(5-fluoro-1H-indol-3-yl)pyrrolidine-2,5-dione] | 147 to 150 |
| O=C1CC(c2c[nH]c3ccccc23)C(=O)N1CCCCN1CC=C(c2c[nH]c3ncccc23)CC1 (stereo not drawn) (as salt: hydrochloride) [Compound 4, 1-(4-(4-(1H-Pyrrolo[2,3-b]pyridin-3-yl)-3,6-dihydropyridin-1(2H)-yl)butyl)-3-(1H-indol-3-yl)pyrrolidine-2,5-dione] | 172 to 177 |
| O=C1CC(c2c[nH]c3ccc(F)cc23)C(=O)N1CCCCN1CC=C(c2c[nH]c3ncccc23)CC1 (stereo not drawn) (as salt: hydrochloride) [Compound 10, 1-(4-(4-(1H-Pyrrolo[2,3-b]pyridin-3-yl)-3,6-dihydropyridin-1(2H)-yl)butyl)-3-(5-fluoro-1H-indol-3-yl)pyrrolidine-2,5-dione] | 98 to 102 |
